Measurements published in patent publication US8865715B2, “Substituted 7-(1,2,3-Triazol-4-yl)-pyrrolo[2,3-b]pyrazines” (Merck Patent GmbH, priority 2010, dated 2014).
pIC50: −log10 of the molar value.

Key:
Type in all cases: biochemical
IKKε = molecular target: T1, IKKε (Homo sapiens, UniProt Q14164); test: IKKε-kinase test (IKKepsilon), 384-well flashplate assay
T1 sequence (Q14164 1-716): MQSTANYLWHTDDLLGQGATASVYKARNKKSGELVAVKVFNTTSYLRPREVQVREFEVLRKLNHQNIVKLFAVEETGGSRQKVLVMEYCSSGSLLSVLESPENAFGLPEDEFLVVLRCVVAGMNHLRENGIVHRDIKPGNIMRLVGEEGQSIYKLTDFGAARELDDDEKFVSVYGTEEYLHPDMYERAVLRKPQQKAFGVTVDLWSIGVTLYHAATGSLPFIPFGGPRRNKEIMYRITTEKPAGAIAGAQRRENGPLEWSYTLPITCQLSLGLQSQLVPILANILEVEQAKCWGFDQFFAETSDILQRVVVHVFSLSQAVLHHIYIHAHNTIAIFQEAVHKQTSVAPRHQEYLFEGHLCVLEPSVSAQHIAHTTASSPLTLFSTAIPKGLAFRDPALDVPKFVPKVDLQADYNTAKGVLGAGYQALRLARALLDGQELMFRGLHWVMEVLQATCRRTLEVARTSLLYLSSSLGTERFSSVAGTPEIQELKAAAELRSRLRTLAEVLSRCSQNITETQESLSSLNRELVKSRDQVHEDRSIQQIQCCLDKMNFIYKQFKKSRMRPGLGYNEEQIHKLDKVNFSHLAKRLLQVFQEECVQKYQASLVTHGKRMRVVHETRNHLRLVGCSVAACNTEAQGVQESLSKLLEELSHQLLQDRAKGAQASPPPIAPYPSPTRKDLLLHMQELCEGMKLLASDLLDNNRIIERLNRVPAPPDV
Method: IKKε-Kinase Test (IKKepsilon)
The kinase assay is performed as 384-well flashplate assay. 1 nM IKKε, 800 nM biotinylated IκBα(19-42) peptide (biotin-C6-C6-[…]) and 10 μM ATP (with 0.3 μCi of ^33P-ATP/well) are incubated in a total volume of 50 μl (10 mM MOPS, 10 mM magnesium acetate, 0.1 mM EGTA, 1 mM dithiothreitol, 0.02% of Brij35, 0.1% of BSA, 0.1% of BioStab, pH 7.5) with or without test substance at 30° C. for 120 min. The reaction is stopped using […] of 200 mM EDTA solution, filtered off with suction after 30 min at room temperature, and the wells are washed 3 times with 100 μl of 0.9% NaCl solution. The non-specific proportion of the kinase reaction (blank) is determined using 3 μM EMD 1126352 (BX-795). Radioactivity is measured in the Topcount. IC50 values are calculated using RS1.

[1] = molecular target: T2, TANK binding kinase (TBK1) (Homo sapiens, UniProt Q9UHD2); test: TBK1-kinase test, 384-well flashplate assay
T2 sequence (Q9UHD2 1-729): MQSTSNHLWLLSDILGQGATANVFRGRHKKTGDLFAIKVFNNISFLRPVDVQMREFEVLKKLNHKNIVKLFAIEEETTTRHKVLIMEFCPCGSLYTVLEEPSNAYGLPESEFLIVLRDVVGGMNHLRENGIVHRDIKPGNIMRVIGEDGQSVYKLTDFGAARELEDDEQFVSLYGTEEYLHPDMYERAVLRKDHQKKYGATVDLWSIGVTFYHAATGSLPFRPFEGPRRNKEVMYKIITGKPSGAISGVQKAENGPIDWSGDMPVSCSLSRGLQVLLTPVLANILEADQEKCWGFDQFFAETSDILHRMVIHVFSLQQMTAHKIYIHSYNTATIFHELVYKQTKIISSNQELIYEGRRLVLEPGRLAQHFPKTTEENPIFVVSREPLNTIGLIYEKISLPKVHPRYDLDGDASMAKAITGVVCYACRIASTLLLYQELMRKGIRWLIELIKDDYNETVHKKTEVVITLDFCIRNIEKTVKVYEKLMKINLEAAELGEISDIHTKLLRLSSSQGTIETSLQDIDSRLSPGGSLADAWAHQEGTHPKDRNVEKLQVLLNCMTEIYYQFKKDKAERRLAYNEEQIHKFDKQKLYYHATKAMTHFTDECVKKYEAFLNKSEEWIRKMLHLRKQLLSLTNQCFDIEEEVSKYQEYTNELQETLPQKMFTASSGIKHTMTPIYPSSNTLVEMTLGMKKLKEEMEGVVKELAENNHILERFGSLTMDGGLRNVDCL
Method: The kinase assay is performed as 384-well flashplate assay. 0.6 nM TANK binding kinase (TBK1), 800 nM biotinylated MELK-derived peptide (biotin-Ah-Ah-[…]) and 10 μM ATP (with 0.25 μCi of ^33P-ATP/well) are incubated in a total volume of 50 μl (10 mM MOPS, 10 mM magnesium acetate, 0.1 mM EGTA, 1 mM DTT, 0.02% of Brij35, 0.1% of BSA, pH 7.5) with or without test substance at 30° C. for 120 min. The reaction is stopped using […] of 200 mM EDTA solution, filtered off with suction after 30 min at room temperature, and the wells are washed 3 times with 100 μl of 0.9% NaCl solution. The non-specific proportion of the kinase reaction (blank) is determined using 100 nM staurosporine. Radioactivity is measured in the Topcount. IC50 values are calculated using RS1.

PDK1 = molecular target: T3, PDK1 (Homo sapiens, UniProt O15530); test: Test for the inhibition of PDK1 (384-well flashplate, 33P-ATP)
T3 construct: His6 (N)
T3 sequence (O15530 51-556 limits assumed): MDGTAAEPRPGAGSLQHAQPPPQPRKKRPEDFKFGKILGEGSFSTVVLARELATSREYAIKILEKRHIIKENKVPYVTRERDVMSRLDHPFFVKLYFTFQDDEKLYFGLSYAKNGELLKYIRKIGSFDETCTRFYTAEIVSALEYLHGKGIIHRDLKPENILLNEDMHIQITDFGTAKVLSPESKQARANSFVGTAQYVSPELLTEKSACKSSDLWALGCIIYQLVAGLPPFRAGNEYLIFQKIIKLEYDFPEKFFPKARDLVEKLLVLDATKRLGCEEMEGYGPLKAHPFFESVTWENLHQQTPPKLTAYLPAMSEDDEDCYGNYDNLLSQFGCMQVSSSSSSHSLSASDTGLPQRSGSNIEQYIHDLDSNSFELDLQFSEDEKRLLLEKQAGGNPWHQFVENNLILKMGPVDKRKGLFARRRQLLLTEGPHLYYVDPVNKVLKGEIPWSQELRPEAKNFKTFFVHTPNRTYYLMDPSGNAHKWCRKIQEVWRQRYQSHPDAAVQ
Method: 4.0 Test for the Inhibition of PDK1
The experimental batches are carried out in a flashplate system with 384 wells/microtitration plate.
In each case, the PDK1 sample His6-PDK1(1-50) (3.4 nM), the PDK1 substrate biotin-bA-bA-[…] (400 nM), 4 μM ATP (with 0.2 μCi of ^33P-ATP/well) and the test substance in 50 μl of conventional experimental solution per well are incubated at 30° C. for 60 min. The test substances are employed in corresponding concentrations (if desired in a dilution series). The control is carried out without test substance. The reaction is stopped using standard methods and washed. The activity of the kinase is measured via the incorporated radioactivity in top count. In order to determine the non-specific kinase reaction (blank value), the experimental batches are carried out in the presence of 100 nM staurosporine.
The radioactivity (decompositions per minute) of the blank value (no use of test substance in the presence of staurosporine) is subtracted from all other radioactivity values. The controls (kinase activity without test substance) are set equal to 100 percent and all other radioactivity values (after subtracting the blank value) are expressed set in relation thereto (for example in % of the control).
IC50 values (50% inhibition) are determined with the aid of statistics programmes, such as, for example, RS1.

| pIC50 (IKKε) | pIC50 [1] | pIC50 (PDK1) | Structure (SMILES) |
| --- | --- | --- | --- |
| 6.00 to 9.30 | 6.00 to 9.30 | 6.00 to 9.30 | Cn1cc(-c2cnc3[nH]cc(-c4cn(Cc5ccccc5C#N)nn4)c3n2)cn1 [Compound A4] |
| 6.00 to 9.30 | 6.00 to 9.30 | 6.00 to 9.30 | Cn1cc(-c2cnc3[nH]cc(-c4cn(Cc5ccc(F)cc5)nn4)c3n2)cn1 [Compound A10] |
| 6.00 to 9.30 | 6.00 to 9.30 | 6.00 to 9.30 | Cn1cc(-c2cnc3[nH]cc(-c4cn(Cc5ccccc5Cl)nn4)c3n2)cn1 [Compound A5] |
| 6.00 to 9.30 | 6.00 to 9.30 | 6.00 to 9.30 | Cn1cc(-c2cnc3[nH]cc(-c4cn(Cc5cccc(F)c5)nn4)c3n2)cn1 [Compound A3] |
| 6.00 to 9.30 | 6.00 to 9.30 | 6.00 to 9.30 | Cn1cc(-c2cnc3[nH]cc(-c4cn(C(CCN5CCCC5)c5ccccc5)nn4)c3n2)cn1 (centres unmarked) [Compound A11, 7-[1-(3-Pyrrolidin-1-yl-1-phenylpropyl)-1H-1,2,3-triazol-4-yl]-2-(1-methyl-1H-pyrazol-4-yl)-5H-pyrrolo[2,3-b]pyrazine] |
| 6.00 to 9.30 | 6.00 to 9.30 | 6.00 to 9.30 | Cn1cc(-c2cnc3[nH]cc(-c4cn(Cc5cccc(F)c5F)nn4)c3n2)cn1 [Compound A7] |
| – | 6.00 to 9.30 | 6.00 to 9.30 | Cn1cc(-c2cnc3[nH]cc(-c4cn(Cc5ccccc5F)nn4)c3n2)cn1 [Compound A12] |
| 5.00 to 6.00 | 5.00 to 6.00 | 5.00 to 6.00 | c1ccc(Cn2cc(-c3c[nH]c4nccnc34)nn2)cc1 [Compound A1, 7-(1-benzyl-1H-1,2,3-triazol-4-yl)-5H-pyrrolo[2,3-b]pyrazine] |
| 6.00 to 9.30 | 6.00 to 9.30 | 6.00 to 9.30 | Cn1cc(-c2cnc3[nH]cc(-c4cn(Cc5ccccc5)nn4)c3n2)cn1 [Compound A2, 7-(1-benzyl-1H-1,2,3-triazol-4-yl)-2-(1-methyl-1H-pyrazol-4-yl)-5H-pyrrolo[2,3-b]pyrazine] |
